Source: patent publication US9073982B2, “Targets for regulation of angiogenesis” (The University of North Carolina at Chapel Hill, priority 2008, dated 2015)
“Also recorded” adds a separate entry of the source.

How the values were obtained:
[1] = test system: mouse endothelial cells (MEC); test: Endothelial cell tube formation assay, MEC cells; type: cell-based; details: for inhibition of SFRP2 induced tube formation: SFRP2 7 nM or 30 nM, tacrolimus 1 μM-100 uM, 8 hours
Description: The tube formation properties of SFRP2 on mouse endothelial cells (MEC) cells were evaluated using an endothelial cell tube formation assay. ECMATRIX (Chemicon) was thawed, diluted and solidified in a 96 well plate according to the manufacturer's instructions. 1×10^4 cells/well in 150 μl of DMEM (celigro) with 10% FBS (HyClone) and a concentration range (7-7000 pM) of SFRP2 (US Biologicals) were seeded onto the matrix and returned to 37° C., 5% CO2 for 8 hours. Images were acquired using the Nikon Eclipse TS100 microscope at 4× magnification with a Nikon CoolPix 995 digital camera. Results were quantified by counting the number of branch points.
(§1) To evaluate whether tacrolimus inhibits SFRP2 induced tube formation, MEC cells were treated as above with SFRP2 7 nM with and without tacrolimus 100 uM for 8 hours and branch points were determined as described above. To evaluate whether tacrolimus reversed established tubes, cells were incubated with SFRP2 7 nM for 8 hours and then BSA or tacrolimus 100 μM was added to SFRP2 treated cells for an additional 4 hours, and then the number of branch points were counted. […] Tacrolimus was not cytotoxic to MEC cells, as only 5% of tacrolimus-treated cells took up trypan blue dye (data not shown).
(§2) The tube formation properties of SFRP2 on MEC cells were evaluated using an endothelial cell tube formation assay. ECMATRIX (Chemicon) was thawed, diluted and solidified in a 96 well plate according to the manufactures instructions. 1×10^4 cells/well in 150 μl of DMEM (cellgro) with 10% FBS (HyClone) and a concentration range (3-3000 pM) of SFRP2 (US Biologicals) were seeded onto the matrix and returned to 37° C., 5% CO2 for 8 hours. Images were acquired using the Nikon Eclipse TS100 microscope at 4× magnification with a Nikon CoolPix 995 digital camera. Results were quantified by counting the number of branch point. To evaluate whether tacrolimus inhibits SFRP2 induced tube formation, MEC cells were treated as above with SFRP2 30 nM with and without tacrolimus (1 μM-100 uM) for 8 hours and branch points were determined as described above. To evaluate whether inhibitors of SFRP2-mediated angiogenesis would inhibit the growth of SVR tumor cells, SVR cells were treated with tacrolimus (1 μM-100 μM) or with a rabbit polyclonal antibody to SFRP-2 (H-140) (Santa Cruz Biotechnology, Santa Cruz, Calif., catalogue 4 sc-13940) in the tube formation assay.

[2] = test system: MMTV-neu transgenic mouse tumors; test: MMTV-neu transgenic mouse tumor growth; type: in vivo
Description: In a second study, MMTV-neu transgenic mice were treated with tacrolimus 3 mg/kg/daily or no treatment. Treatment began when tumors were palpable and continued for 21 days. Tumor volumes were monitored with serial ultrasounds. A two-tailed T-test was used to determine the difference between growth rates of the tumors between treated and non-treated tumors.

SVR angiosarcoma cells = test: SVR angiosarcoma cell tube formation assay; type: cell-based, mouse; details: for inhibition of SVR tube formation by sera compared to control mouse sera: sera at 1:100 dilution
Description: as §2
As a further test of the contribution of SFRP2 to endothelial tube formation, it was evaluated whether loss of function of SFRP2 would inhibit SVR angiosarcoma tube formation. This was studied two different ways, first with a blocking antibody to SFRP2, and then using siRNA to SFRP2. SVR cells were plated in MATRIGEL in a tube formation assay and treated with a polyclonal antibody to SFRP2. […] After 72 h of transfection using LIPOFECTAMINE™ RNAiMAX Transfection reagent (Invitrogen) according to the manufacturer's protocol, cells were harvested and ready for Western blot analyses and tube formation assay.
Monoclonal antibodies for the epitope corresponding to AbB (AA202-AA220) were prepared. […] The angiosarcoma cells were suspended in 150 μl of antibody containing growth media for 90 different samples and control media, After 6 hours, pictures were taken and the number of branch points for each well was counted. […]

MEC cells = test: Trypan blue uptake (cytotoxicity) in MEC cells; type: cell-based, mouse; details: tacrolimus-treated MEC cells
Description: as §1

[3] = test system: SVR angiosarcoma xenografts; test: SVR angiosarcoma xenografts in nude mice; type: in vivo; details: for growth of SVR angiosarcoma xenografts: nude mice
Description: To test the ability of tacrolimus to inhibit angiogenesis in vivo, SVR mouse angiosarcoma cells (0.5×10^6) were injected into the flank of 6-week-old nude male mice obtained from Charles River Breeding Laboratories. Treatment was initiated on the day after inoculation. Mice received 3 mg/kg/daily tacrolimus or vehicle control suspended in 20% Intralipid (Baxter Healthcare, Deerfield, Ill.) in a total volume of 0.3 ml intraperitoneally (i.p.), and were treated daily for 19 days. Serial caliper measurements of perpendicular diameters were used to calculate tumor volume using the following formula: (shortest diameter)^2×(longest diameter)×0.52. Differences in tumor volume over time were analyzed with a two way ANOVA. A P value of ≦0.05 indicated a statistically significant reduction in tumor growth of the treated group compared to the control group. […] Treatment with tacrolimus reduced mean tumor volume by 46% at day 19 (589±129 mm^3 vs 315±93 mm^3, two-way ANOVA, p=0.04, FIG. 26).
The ability of a monoclonal antibody recognizing SFRP2 to inhibit tumor growth in vivo was tested in a nude mouse assay. The SFRP2 MAb subclone 80.8.6 was first tested with SVR angiosarcoma xenografts. Six week old nude mice were injected with 1×10^6 SVR angiosarcoma cells. The day after injections treated mice received SFRP2 MAb(80.8.6) 4 mg/kg i.v. twice weekly (n=5), and controls received equal volumes of buffer. At day 14 there was a 65% decrease in tumor volume (*p=0.03, two-tailed student's t-test) (FIG. 34).

2H11 cells = test: 2H11 endothelial MATRIGEL tube formation assay; type: cell-based, mouse; details: for inhibition of SFRP2 stimulated endothelial tube formation: SFRP2 stimulated 2H11 cells; for inhibition of VEGF stimulated endothelial tube formation: VEGF stimulated 2H11 cells
Source text: The ability for tacrolimus to inhibit SFRP2 and VEGF stimulated 2H11 endothelial tube formation in vitro was studied in a MATRIGEL tube formation assay.

[4] = test system: MDA-MB-231 breast cancer xenografts; test: MDA-MB-231 breast cancer xenografts in nude mice; type: in vivo; details: 4 mg/kg i.v. twice weekly
Description: The SFRP2 MAb subclone 80.8.6 was next tested with MDA-MB-231 breast cancer xenografts. Six week old female nude mice were injected with 1×10^6 MDA-MB-231 cells. After 4 weeks, when tumors were palpable, mice received SFRP2 MAb (80.8.6) 4 mg/kg i.v. twice weekly (n=12), and controls received equal volumes of buffer. At day 8 the median tumor volume for controls was 1200 mm^3, and for SFRP2 MAb treated mice was 580 mm^3, which represents a 52% decrease in tumor volume (p=0.04, two-tailed student's t-test).

[5] = tacrolimus 3 mg/kg/daily i.p., day 19

## C=CC[C@@H]1/C=C(\C)C[C@H](C)C[C@H](OC)[C@H]2O[C@@](O)(C(=O)C(=O)N3CCCC[C@H]3C(=O)O[C@H](/C(C)=C/[C@@H]3CC[C@@H](O)[C@H](OC)C3)[C@H](C)[C@@H](O)CC1=O)[C@H](C)C[C@@H]2OC [tacrolimus]
[1]; Mus musculus, Endothelial cell, tacrolimus 1 μM, SFRP2 30 nM, read-out: inhibition of SFRP2 induced tube formation
  inhibition at 1 µM: 64%
[1]; SFRP2 7 nM 8 hours, then tacrolimus 100 μM for 4 hours
  reversal of established SFRP2-induced tubes: reversed SFRP2-induced tube formation; also recorded: reverses SFRP2-induced mouse endothelial cell tube formation
[1]
  inhibition of SFRP2 induced tube formation: inhibits SFRP2-induced mouse endothelial cell tube formation; also recorded: inhibits tube formation in SFRP2-induced MEC cells
[1]; listed as Tacrolimus
  inhibition of SFRP2 induced tube formation: inhibited SFRP2 induced tube formation
[2]; mouse, in vivo
  growth rate of MMTV-neu tumors: inhibits the growth rate
[2]; tacrolimus 3 mg/kg/daily, 21 days
  signs of toxicity (diarrhea, infection, lethargy, weight loss): no signs of toxicity
[2]; tacrolimus 3 mg/kg/daily, day 21
  reduction in tumor growth rate: 59%
SVR angiosarcoma cells
  inhibition of SVR angiosarcoma tube formation: inhibited by tacrolimus; also recorded: inhibits tube formation in SVR angiosarcoma cells
MEC cells
  treated cells that took up trypan blue dye: 5%
[3]
  growth of SVR angiosarcoma xenografts: effective at suppressing the growth; also recorded: inhibits the growth
[3]; tacrolimus 3 mg/kg/daily i.p., 19 days
  signs of toxicity (diarrhea, infection, lethargy, weight loss): no signs of toxicity
[3]; [5]
  mean tumor volume: 315±93 mm^3
  reduction of mean tumor volume: 46%
2H11 cells
  inhibition of SFRP2 stimulated endothelial tube formation: inhibits SFRP2-induced mouse endothelial cell tube formation
  inhibition of VEGF stimulated endothelial tube formation: inhibits VEGF-induced mouse endothelial cell tube formation
2H11 cells; listed as Tacrolimus
  inhibition of SFRP2 stimulated endothelial tube formation: inhibited endothelial tube formation
  inhibition of VEGF stimulated endothelial tube formation: inhibited endothelial tube formation

## AbB: sera from mouse immunized against SFRP2 epitope amino acids AA202-AA220 (EITYINRDTKIILETKSKTC)
SVR angiosarcoma cells
  inhibition of SVR tube formation by sera compared to control mouse sera: inhibited SVR tube formation; also recorded: greatest inhibition

## AbC: sera from mouse immunized against SFRP2 epitope amino acids AA270-AA295 (ITSVKRWQKGQREFKRISRSIRKLQC)
SVR angiosarcoma cells
  inhibition of SVR tube formation by sera compared to control mouse sera: inhibited SVR tube formation; also recorded: greatest inhibition

B1: SFRP2 MAb (80.8.6): monoclonal antibody produced by hybridoma cell line UNC 68-80 (subclone 80.8.6), ATCC PTA-11762; VH SEQ ID NO:13, VL SEQ ID NO:15 (antibody, V domains shown)
VH: QVQLQQPGAELVQPGASVMLSCKASGFTFTRYWWHWVRQTPGRGLEWIGRIDPNSGTTRFIEKFKTKATLTVDKPSSTAYMHLSSLTSEDSAVYYCARWGPYYGYAMDYWGPGTSVTVSS
VL: QIVLTQSPAIMSASPGQKVTITCSASSSVTYMHWYQQKLGSSPKLWIYDTSRLAPGSPARFSGSGSGTSYSLTISSMETEDAASYFCHQWSTYPPTFGTGTKLEIQ
modifications: Heavy chain variable region sequence; Light chain variable region sequence
[3]; 4 mg/kg i.v. twice weekly
  toxicity or weight loss: No toxicity or weight loss
[3]; 4 mg/kg i.v. twice weekly, day 14
  decrease in tumor volume: 65%
[3]
  growth of SVR angiosarcoma xenografts: inhibits the growth
[4]
  toxicity or weight loss: No toxicity or weight loss
[4]; day 8
  decrease in tumor volume: 52%
  median tumor volume: 580 mm^3
